In patent publication US7138361B2, “Herbicidal heterocycles” (E. I. du Pont de Nemours and Company, priority 2000, dated 2006):

Columns and labels:
Assay in all cases: Test C preemergence
Assay type in all cases: in vivo
corn (Zea mays) = system: corn (Zea mays)
Procedure, shortened: (§1)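 Herbicidal effect is a visual 0–100 score (100 = complete control) assigned versus untreated plants, 12 to 14 days after spraying in the greenhouse. Test compounds were applied in a non-phytotoxic, surfactant-containing solvent.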

[1] = system: goosegrass (Eleusine indica)
Procedure, shortened: as §1

[2] = system: bermudagrass (Cynodon dactylon)
Procedure, shortened: as §1

[3] = system: cocklebur (Xanthium strumarium)
Procedure, shortened: as §1

[4] = system: common ragweed (Ambrosia elatior)
Procedure, shortened: as §1

[5] = system: crabgrass (Digitaria sanguinalis)
Procedure, shortened: as §1

[6] = system: pigweed (Amaranthus retroflexus)
Procedure, shortened: as §1

[7] = system: velvetleaf (Abutilon theophrasti)
Procedure, shortened: as §1

[8] = system: Surinam grass (Brachiaria decumbens)
Procedure, shortened: as §1

[9] = system: yellow nutsedge (Cyperus esculentus)
Procedure, shortened: as §1

[10] = system: morningglory (Ipomoea hederacea)
Procedure, shortened: as §1

kochia (Kochia scoparia) = system: kochia (Kochia scoparia)
Procedure, shortened: as §1

[11] = system: lambsquarters (Chenopodium album)
Procedure, shortened: as §1

Sunflower [12] = system: Sunflower
[13] = system: woolly cupgrass (Eriochloa villosa)
Procedure, shortened: as §1

[14] = system: giant foxtail (Setaria faberii)
Procedure, shortened: as §1

soybean (Glycine max) = system: soybean (Glycine max)
Procedure, shortened: as §1

Nightshade = system: Nightshade
[15] = system: johnsongrass (Sorghum halepense)
Procedure, shortened: as §1

Sunflower [16] = details: Rate 250 g/ha, visual evaluation after 12 to 14 days
[17] = Preemergence, Rate 500 g/ha, scale 0 to 100
[18] = Rate 62 g/ha, scale 0 to 100, 0 no effect, 100 complete control
[19] = preemergence, Rate 250 g/ha, visual evaluation after 12 to 14 days
[20] = preemergence, Rate 125 g/ha, scale 0 to 100, 0 no effect, 100 complete control

CC(C)(C)c1ccn(C2CCN(c3cccc(Br)c3)C2=O)n1 (stereo not shown) [Compound 33]
Plant response rating, Corn (corn (Zea mays); [17]): 40 | Plant response rating, Corn (corn (Zea mays); [18]): 0 | Plant response rating (0 to 100), Corn (corn (Zea mays); [19]): 0 | Plant response rating, Corn (corn (Zea mays); [20]): 0 | Plant response rating, Goosegrass [1, 17]: 100 | Plant response rating, Goosegrass [1, 18]: 80 | Plant response rating (0 to 100), Goosegrass [1, 19]: 100 | Plant response rating, Goosegrass [1, 20]: 100 | Plant response rating, Bermudagrass [2, 17]: 100 | Plant response rating, Bermudagrass [2, 18]: 90 | Plant response rating (0 to 100 where 0 is no effect and 100 is complete control), Bermudagrass [2, 19]: 100 | Plant response rating, Bermudagrass [2, 20]: 100 | Plant response rating, Cocklebur [3, 17]: 0 | Plant response rating, Cocklebur [3, 18]: 0 | Plant response rating (0 to 100), Cocklebur [3, 19]: 0 | Plant response rating, Cocklebur [3, 20]: 0 | Plant response rating, Ragweed, Common [4, 17]: 30 | Plant response rating, Ragweed, Common [4, 18]: 0 | Plant response rating (0 to 100), Ragweed, Common [4, 19]: 0 | Plant response rating, Ragweed, Common [4, 20]: 0 | Plant response rating, Crabgrass [5, 17]: 100 | Plant response rating, Crabgrass [5, 18]: 80 | Plant response rating (0 to 100), Crabgrass [5, 19]: 100 | Plant response rating, Crabgrass [5, 20]: 100 | Plant response rating, Pigweed [6, 17]: 100 | Plant response rating, Pigweed [6, 18]: 0 | Plant response rating (0 to 100), Pigweed [6, 19]: 60 | Plant response rating, Pigweed [6, 20]: 0 | Plant response rating, Velvetleaf [7, 17]: 0 | Plant response rating, Velvetleaf [7, 18]: 0 | Plant response rating (0 to 100), Velvetleaf [7, 19]: 0 | Plant response rating, Velvetleaf [7, 20]: 0 | Plant response rating, Surinam grass [8, 17]: 100 | Plant response rating, Surinam grass [8, 18]: 0 | Plant response rating (0 to 100), Surinam grass [8, 19]: 90 | Plant response rating, Surinam grass [8, 20]: 0 | Plant response rating, Nutsedge [9, 17]: 0 | Plant response rating, Nutsedge [9, 18]: 0 | Plant response rating (0 to 100), Nutsedge [9, 19]: 0 | Plant response rating, Nutsedge [9, 20]: 0 | Plant response rating, Morningglory [10, 17]: 0 | Plant response rating, Morningglory [10, 18]: 0 | Plant response rating (0 to 100), Morningglory [10, 19]: 0 | Plant response rating, Morningglory [10, 20]: 0 | Plant response rating, Kochia (kochia (Kochia scoparia); [17]): 100 | Plant response rating, Kochia (kochia (Kochia scoparia); [18]): 100 | Plant response rating (0 to 100), Kochia (kochia (Kochia scoparia); [19]): 100 | Plant response rating, Kochia (kochia (Kochia scoparia); [20]): 100 | Plant response rating, Lambsquarters [11, 17]: 100 | Plant response rating, Lambsquarters [11, 18]: 100 | Plant response rating (0 to 100), Lambsquarters [11, 19]: 100 | Plant response rating, Lambsquarters [11, 20]: 100 | Plant response rating, Sunflower (Sunflower [12]; [18]): 0 | Plant response rating, Sunflower (Sunflower [12]; Rate 500 g/ha, scale 0 to 100): 60 | Plant response rating, Cupgrass, Woolly [13, 17]: 100 | Plant response rating, Cupgrass, Woolly [13, 18]: 20 | Plant response rating (0 to 100), Cupgrass, Woolly [13, 19]: 100 | Plant response rating, Cupgrass, Woolly [13, 20]: 90 | Plant response rating, Foxtail, Giant [14, 17]: 30 | Plant response rating, Foxtail, Giant [14, 18]: 50 | Plant response rating (0 to 100), Foxtail, Giant [14, 19]: 0 | Plant response rating, Foxtail, Giant [14, 20]: 100 | Plant response rating, Soybean (soybean (Glycine max); [17]): 0 | Plant response rating, Soybean (soybean (Glycine max); [18]): 0 | Plant response rating (0 to 100), Soybean (soybean (Glycine max); [19]): 0 | Plant response rating, Soybean (soybean (Glycine max); [20]): 0 | Plant response rating, Nightshade (Nightshade; [18]): 0 | Plant response rating, Nightshade (Nightshade; Rate 500 g/ha, scale 0 to 100): 100 | Plant response rating, Johnsongrass [15, 17]: 100 | Plant response rating, Johnsongrass [15, 18]: 0 | Plant response rating (0 to 100), Johnsongrass [15, 19]: 0 | Plant response rating, Johnsongrass [15, 20]: 0 | Plant response rating (0 to 100), Sunflower (Sunflower [16]): 30
